Source: patent publication US10494376B2, “Tetrahydroisoquinoline derived PRMT5-inhibitors” (CTXT PTY LTD, priority 2014, dated 2019)
Counter-ions that a name gives are not always drawn.

Biological target: Full-length PRMT5 enzyme (NCBI Reference sequence NP_006100.2) co-expressed with His6-MEP50 (Homo sapiens (Human), UniProt O14744)
Test: Revised PRMT5 Biochemical Assay
Details: 1 μM peptide substrate, 1 μM S-Adenosyl methionine, 4 hours at 37 degree Celsius, Transcreener EPIGEN fluorescence polarisation
Method: Compounds of the invention may be tested for in vitro activity in the following assay: A histone H4 derived peptide is used as substrate (amino acid sequence: […]N H2). Full-length PRMT5 enzyme (NCBI Reference sequence NP_006100.2) was co-expressed with His6-MEP50 in insect cells and purified via Nickel immobilized metal affinity and gel filtration chromatography (“the enzyme”).
The 6 μL reactions are run in Greiner brand black 384-well low volume assay plates. All reactions contained assay buffer (phosphate buffered saline, 0.01% (v/v) Tween-20, 0.01% (w/v) albumin from chicken egg white, 1 mM Dithiothreitol, 1 μM peptide substrate, 1 μM S-Adenosyl methionine, and 15 ng/reaction enzyme, with the enzyme being omitted from negative control reactions. Compounds were added in a volume of 100 nL from dilution series prepared in DMSO, positive and negative control reactions receiving the same volume DMSO without compound. The plates were sealed with adhesive seals and incubated for 4 hours at 37 degree Celsius. Reaction progress was measured using the Transcreener™ EPIGEN methyltransferase assay (BellBrook Labs, Madison, Wis.) as recommended by the manufacturer. To each reaction 2 μL detection mix were added, containing coupling enzymes, fluorescence polarisation tracer, and AMP antibody. Plates were incubated for 90 minutes before being read on a PerkinElmer EnVision™ plate reader in fluorescence polarisation mode. IC50 values were obtained from the raw readings by calculating percent inhibition (%1) for each reaction relative to controls on the same plate (% I=(I−CN)/(CP−CN) where CN/CP are the averages of the negative/positive reactions, respectively), then fitting the %1 data vs. compound concentration [I] to % I=(A+((B−A)/(1+((C/[I])^D)))) where A is the lower asymptote, B is the upper asymptote, C is the IC50 value, and D is the slope.

Sequence of Full-length PRMT5 enzyme (NCBI Reference sequence NP_006100.2) co-expressed with His6-MEP50 (O14744 whole entry): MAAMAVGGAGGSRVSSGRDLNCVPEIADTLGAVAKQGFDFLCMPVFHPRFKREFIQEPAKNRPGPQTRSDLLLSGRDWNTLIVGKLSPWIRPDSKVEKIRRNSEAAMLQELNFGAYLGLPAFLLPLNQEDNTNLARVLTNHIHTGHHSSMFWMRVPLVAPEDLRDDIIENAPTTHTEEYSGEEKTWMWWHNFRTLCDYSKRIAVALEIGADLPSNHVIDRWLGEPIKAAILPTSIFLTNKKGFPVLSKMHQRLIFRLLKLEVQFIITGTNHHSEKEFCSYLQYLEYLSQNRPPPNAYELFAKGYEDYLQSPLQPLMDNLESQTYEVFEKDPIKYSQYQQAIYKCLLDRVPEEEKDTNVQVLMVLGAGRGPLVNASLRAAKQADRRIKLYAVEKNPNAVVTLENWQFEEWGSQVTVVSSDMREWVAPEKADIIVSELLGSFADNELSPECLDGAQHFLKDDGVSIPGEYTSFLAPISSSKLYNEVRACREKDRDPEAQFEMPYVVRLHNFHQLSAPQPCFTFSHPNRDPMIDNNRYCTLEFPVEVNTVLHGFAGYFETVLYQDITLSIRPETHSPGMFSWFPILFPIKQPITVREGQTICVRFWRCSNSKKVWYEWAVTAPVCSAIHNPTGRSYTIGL
Sequence of Full-length PRMT5 enzyme (NCBI Reference sequence NP_006100.2) co-expressed with His6-MEP50 (Q9BQA1 whole entry partner): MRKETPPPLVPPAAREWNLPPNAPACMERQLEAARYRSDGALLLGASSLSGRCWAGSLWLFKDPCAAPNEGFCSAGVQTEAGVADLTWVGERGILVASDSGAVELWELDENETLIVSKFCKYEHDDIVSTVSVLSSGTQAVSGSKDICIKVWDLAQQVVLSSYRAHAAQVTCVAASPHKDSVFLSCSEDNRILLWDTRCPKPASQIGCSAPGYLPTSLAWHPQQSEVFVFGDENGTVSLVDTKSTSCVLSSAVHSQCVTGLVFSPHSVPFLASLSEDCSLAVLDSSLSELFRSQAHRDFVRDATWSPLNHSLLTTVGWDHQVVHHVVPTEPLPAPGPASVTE

Row | SMILES | IC50
1 | Cc1ccccc1C(=O)NC[C@@H](O)[C@@H]1Cc2ccccc2CN1 [Example 10, N-((R)-2-Hydroxy-2-((S)-1,2,3,4-tetrahydroisoquinolin-3-yl)ethyl)-2-methylbenzamide] | 22500 nM
2 | O=C(NC[C@@H](O)[C@@H]1Cc2ccccc2CN1)c1ccccc1OC(F)(F)F [Example 6, N-((R)-2-Hydroxy-2-((S)-1,2,3,4-tetrahydroisoquinolin-3-yl)ethyl)-2-(trifluoromethoxy)benzamide] | 45800 nM
3 | O=C(NC[C@@H](O)[C@@H]1Cc2ccccc2CN1)c1cccc(-c2cncnc2)c1 [Example 18, N-((R)-2-Hydroxy-2-((S)-1,2,3,4-tetrahydroisoquinolin-3-yl)ethyl)-3-(pyrimidin-5-yl)benzamide] | 2100 nM
4 | O=C(NC[C@H](O)[C@@H]1Cc2ccccc2CN1)c1ccc(C(=O)N2CCOCC2)cc1 [Example 52, N—((S)-2-Hydroxy-2-((S)-1,2,3,4-tetrahydroisoquinolin-3-yl)ethyl)-4-(morpholine-4-carbonyl)benzamide hydrochloride] | 3330 nM
5 | O=C(NC[C@@H](O)[C@@H]1Cc2ccccc2CN1)c1ccc(C(=O)N2Cc3cccnc3C2)cc1 [Example 96, 4-(6,7-Dihydro-5H-pyrrolo[3,4-b]pyridine-6-carbonyl)-N-((R)-2-hydroxy-2-((S)-1,2,3,4-tetrahydroisoquinolin-3-yl)ethyl)benzamide] | 1380 nM
6 | Nc1ccc(C(=O)NC[C@@H](O)[C@@H]2Cc3ccccc3CN2)cn1 [Example 111, 6-Amino-N-((R)-2-hydroxy-2-((S)-1,2,3,4-tetrahydroisoquinolin-3-yl)ethyl)nicotinamide dihydrochloride] | 4670 nM
7 | O=C(NC[C@@H](O)[C@@H]1Cc2ccccc2CN1)c1ccc(C(=O)N2CCC(O)C2)cc1 (stereo partly drawn) [Example 47, N-((R)-2-Hydroxy-2-((S)-1,2,3,4-tetrahydroisoquinolin-3-yl)ethyl)-4-(3-hydroxypyrrolidine-1-carbonyl)benzamide] | 3370 nM
8 | O=C(NC[C@@H](O)[C@@H]1Cc2ccccc2CN1)c1coc(-c2ccccc2)n1 [Example 14, N-((R)-2-Hydroxy-2-((S)-1,2,3,4-tetrahydroisoquinolin-3-yl)ethyl)-2-phenyloxazole-4-carboxamide] | 2330 nM
9 | O=C(NC[C@@H](O)[C@@H]1Cc2ccccc2CN1)c1ccc(C(=O)N2C3CCC2CC(O)C3)cc1 (stereo partly drawn) [Example 42, N-((R)-2-Hydroxy-2-((S)-1,2,3,4-tetrahydroisoquinolin-3-yl)ethyl)-4-(3-hydroxy-8-azabicyclo[3.2.1]octane-8-carbonyl)benzamide] | 212 nM
10 | O=C(NC[C@@H](O)[C@@H]1Cc2ccccc2CN1)c1ccc(C(=O)N2CCCC2)cc1 [Example 90, N-((R)-2-Hydroxy-2-((S)-1,2,3,4-tetrahydroisoquinolin-3-yl)ethyl)-4-(pyrrolidine-1-carbonyl)benzamide] | 947 nM
11 | O=C(NC[C@@H](O)[C@@H]1Cc2ccccc2CN1)c1ccc(C(=O)NC2CCC(F)(F)CC2)cc1 [Example 44, N^1-(4,4-Difluorocyclohexyl)-N^4-((R)-2-hydroxy-2-((S)-1,2,3,4-tetrahydroisoquinolin-3-yl)ethyl)terephthalamide] | 1240 nM
12 | Cc1nnc(-c2ccc(C(=O)NC[C@@H](O)[C@@H]3Cc4ccccc4CN3)cc2)o1 [Example 25, N-((R)-2-Hydroxy-2-((S)-1,2,3,4-tetrahydroisoquinolin-3-yl)ethyl)-4-(5-methyl-1,3,4-oxadiazol-2-yl)benzamide] | 1700 nM
13 | CCOc1nc(C(=O)N2C3CCC2COC3)ccc1C(=O)NC[C@@H](O)[C@@H]1Cc2ccccc2CN1 [Example 70, 6-(3-Oxa-8-azabicyclo[3.2.1]octane-8-carbonyl)-2-ethoxy-N-((R)-2-hydroxy-2-((S)-1,2,3,4-tetrahydroisoquinolin-3-yl)ethyl)nicotinamide] | 121 nM
14 | O=C(NC[C@@H](O)[C@@H]1Cc2ccccc2CN1)c1cccnc1 [Example 78, N-((R)-2-Hydroxy-2-((S)-1,2,3,4-tetrahydroisoquinolin-3-yl)ethyl)nicotinamide dihydrochloride] | 1700 nM
15 | O=C(NC[C@@H](O)[C@@H]1Cc2ccccc2CN1)c1ccc(C(=O)N2C3CCC2COC3)c(C(F)F)c1 [Example 85, 4-(3-Oxa-8-azabicyclo[3.2.1]octane-8-carbonyl)-3-(difluoromethyl)-N-((R)-2-hydroxy-2-((S)-1,2,3,4-tetrahydroisoquinolin-3-yl)ethyl)benzamide] | 279 nM
16 | O=C(NC[C@@H](O)[C@@H]1Cc2ccccc2CN1)c1ccccc1F [Example 9, 2-Fluoro-N-((R)-2-hydroxy-2-((S)-1,2,3,4-tetrahydroisoquinolin-3-yl)ethyl)benzamide] | 12500 nM
17 | O=C(NC[C@@H](O)[C@@H]1Cc2ccccc2CN1)c1ccccc1C(F)F [Example 23, 2-(Difluoromethyl)-N-((R)-2-hydroxy-2-((S)-1,2,3,4-tetrahydroisoquinolin-3-yl)ethyl)benzamide] | 5140 nM
18 | CC(C)COC(=O)N1CCC(Oc2cc(C(=O)NC[C@@H](O)[C@@H]3Cc4ccccc4CN3)ccn2)CC1 [Example 62, Isobutyl 4-((4-(((R)-2-hydroxy-2-((S)-1,2,3,4-tetrahydroisoquinolin-3-yl)ethyl)carbamoyl)pyridin-2-yl)oxy)piperidine-1-carboxylate] | 102 nM
19 | O=C(NC[C@@H](O)[C@@H]1Cc2ccccc2CN1)c1ccc(OC2CCNCC2)nc1 [Example 99, N—((R)-2-Hydroxy-2-((S)-1,2,3,4-tetrahydroisoquinolin-3-yl)ethyl)-6-(piperidin-4-yloxy)nicotinamide trihydrochloride] | 127 nM
20 | CC(NC(=O)c1ccc(C(=O)N2CCOCC2)cc1)[C@H](O)[C@@H]1Cc2ccccc2CN1 (stereo partly drawn) [Example 110, N-((1S)-1-Hydroxy-1-((S)-1,2,3,4-tetrahydroisoquinolin-3-yl)propan-2-yl)-4-(morpholine-4-carbonyl)benzamide hydrochloride] | 1490 nM

Results, then the molecule that gave them:

Row | IC50 | SMILES
21 | 307 nM | COC(=O)N1CCN(C(=O)c2ccc(C(=O)NC[C@@H](O)[C@@H]3Cc4ccccc4CN3)cc2)CC1 [Example 67, Methyl 4-(4-(((R)-2-hydroxy-2-((S)-1,2,3,4-tetrahydroisoquinolin-3-yl)ethyl)carbamoyl)benzoyl)piperazine-1-carboxylate]
22 | 148 nM | O=C(NC[C@@H](O)[C@@H]1Cc2ccccc2CN1)c1ccc(C(=O)N2C[C@H]3COC[C@H]3C2)cc1 [Example 36, 4-(cis-Hexahydro-1H-furo[3,4-c]pyrrole-5-carbonyl)-N-((R)-2-hydroxy-2-((S)-1,2,3,4-tetrahydroisoquinolin-3-yl)ethyl)benzamide]
23 | 705 nM | O=C(NC[C@@H](O)[C@@H]1Cc2ccccc2CN1)c1ccc(C(=O)N2CCCOCC2)cc1 [Example 40, N-((R)-2-Hydroxy-2-((S)-1,2,3,4-tetrahydroisoquinolin-3-yl)ethyl)-4-(1,4-oxazepane-4-carbonyl)benzamide]
24 | 780 nM | O=C(NC[C@@H](O)[C@@H]1Cc2ccccc2CN1)c1ccc(C(=O)N2CC3CC2CO3)cc1 (mixture of isomers) [Example 94, 4-(2-Oxa-5-azabicyclo[2.2.1]heptane-5-carbonyl)-N-((R)-2-hydroxy-2-((S)-1,2,3,4-tetrahydroisoquinolin-3-yl)ethyl)benzamide]
25 | 593 nM | CC(C)Oc1ccc(C(=O)NC[C@@H](O)[C@@H]2Cc3ccccc3CN2)cn1 [Example 59, N-((R)-2-Hydroxy-2-((S)-1,2,3,4-tetrahydroisoquinolin-3-yl)ethyl)-6-isopropoxynicotinamide]
26 | 9710 nM | O=C(NC[C@@H](O)[C@@H]1Cc2ccccc2CN1)c1ccc(C(=O)NC2CCS(=O)(=O)CC2)cc1 [Example 95, N^1-(1,1-Dioxidotetrahydro-2H-thiopyran-4-yl)-N^4-((R)-2-hydroxy-2-((S)-1,2,3,4-tetrahydroisoquinolin-3-yl)ethyl)terephthalamide]
27 | 3690 nM | O=C(NC[C@@H](O)[C@@H]1Cc2ccccc2CN1)c1cccc(C(=O)N2CCOCC2)c1 [Example 24, N-((R)-2-Hydroxy-2-((S)-1,2,3,4-tetrahydroisoquinolin-3-yl)ethyl)-3-(morpholine-4-carbonyl)benzamide]
28 | 3820 nM | O=C(NC[C@@H](O)[C@@H]1Cc2ccccc2CN1)c1ccnc(C(F)(F)F)c1 [Example 86, N-((R)-2-Hydroxy-2-((S)-1,2,3,4-tetrahydroisoquinolin-3-yl)ethyl)-2-(trifluoromethyl)isonicotinamide dihydrochloride]
29 | 192 nM | O=C(NC[C@@H](O)[C@@H]1Cc2ccccc2CN1)c1ccc(Cl)cc1 [Example 48, 4-Chloro-N—((R)-2-hydroxy-2-((S)-1,2,3,4-tetrahydroisoquinolin-3-yl)ethyl)benzamide]
30 | 1200 nM | O=C(NC[C@@H](O)[C@@H]1Cc2ccccc2CN1)c1cc(OC2CCOCC2)ncc1Cl [Example 75, 5-Chloro-N-((R)-2-hydroxy-2-((S)-1,2,3,4-tetrahydroisoquinolin-3-yl)ethyl)-2-((tetrahydro-2H-pyran-4-yl)oxy)isonicotinamide dihydrochloride]
